Test results as given in patent US6503934B2, “Substituted thiadiazolesulfonamides” (Aventis Pharma Deutschland GmbH, priority 1998, dated 2003).

Tested on: release of IL-1β
Experiment: Inhibition of LPS-induced IL-1β release from isolated human mononuclear cells (enzyme immunoassay)
Format: cell-based
Details: human mononuclear cells from citrate blood, lipopolysaccharide (Salmonella abortus equi) induced, 37° C. for 20 hours, IL-1β in supernatant; seven concentrations
Method: The mononuclear cells were concentrated from freshly obtained human citrate blood by known standard processes. See, e.g., Tiku et al., J. Immunol. 136/10 (1986) 3677.
15 ml of Lymphoprep® (Molter GmbH, Heidelberg, FRG) was carefully introduced under a layer of 10 ml of freshly prepared human citrate blood and the mixture was then centrifuged at 400×g (Minifuge®, Heraeus, Hanau, FRG) at 20° C. for 40 minutes. The cell fraction, showing as a white ring in the phase boundary, was withdrawn with the aid of a syringe, diluted 1:1 (v/v) with PM-16 buffer (Serva, Heidelberg, FRG) and centrifuged again as above for 10 minutes. The […] was taken up in 10 ml of RPMI 1640 buffer (Gibco, Berlin, FRG), to which 300 mg/I of L-glutamine, 25 mmol/l of HEPES, […] of penicillin had been added beforehand. The cell suspension, comprising about 90% lymphocytes and 10% monocytes, was adjusted to about 5 million cells/ml with the aid of a cell counter (type IT, Coulter Diagnostics, Krefeld, FRG). The cell viability was checked with the aid of the known lactate dehydrogenase method before and after the inhibition experiments. No change in the viability was found here.
The synthesis and release of cellular IL-1β was induced by adding a solution of […] of lipopolysaccharide (Salmonella abortus equi, Sigma GmbH, Deisenhofen, FRG) in 0.01 ml of dimethyl sulfoxide/water (1:10, v/v) to 0.48 ml of the cell fraction described above. At the same time, a solution of the test substance in 0.01 ml was added to the cell fraction, and the mixture was left in a commercially available incubator at 37° C. for 20 hours. After the sample had been cooled to 0° C., it was centrifuged in a bench centrifuge for 1 minute and in each case 0.025 ml aliquots of the supernatant were investigated specifically for their IL-1β content with the aid of a commercially available “sandwich” enzyme immunoassay kit (Biosource, Ratingen, FRG), in accordance with the manufacturer's instructions. The control values, without addition of the test preparation, were determined and set at 100%. In particular, any influence of dimethyl sulfoxide on the IL-1β level was excluded by corresponding comparison measurements.
The concentration range was chosen here such that it comprised the ranges from 0% inhibition (that is to say without addition of the test substance) to at least 80% inhibition. The test substance concentration which led to 50% inhibition of the release of IL-1β was determined by extrapolation from the dose-effect relationship determined by graph or mathematically.
IC50 value has been shown in Table 2 as micromoles/liter for the corresponding compounds of the formula (I) according to the invention.

Row | SMILES | IC50
1 | COc1ccc(-c2nsc(S(=O)(=O)N3CCN(C)CC3)n2)cc1Cl [Example 24] | 20 µM
2 | CN1CCN(S(=O)(=O)c2nc(-c3ccccc3)ns2)CC1 [Example 8] | 4 µM
3 | O=S(=O)(c1nc(-c2ccccc2)ns1)N1CCOCC1 [Example 2] | 3 µM
4 | CCOC(=O)C1CCN(S(=O)(=O)c2nc(-c3ccccc3)ns2)CC1 [Example 12] | 2 µM
5 | CC(=O)N1CCN(S(=O)(=O)c2nc(-c3ccccc3)ns2)CC1 [Example 15] | 2 µM
6 | O=C(O)C1CCN(S(=O)(=O)c2nc(-c3ccccc3)ns2)CC1 [Example 14] | 2 µM
7 | O=S(=O)(NCc1ccccc1)c1nc(-c2ccccc2)ns1 [Example 4] | 15 µM
8 | CN1CCN(S(=O)(=O)c2nc(-c3ccc(Cl)cc3)ns2)CC1 [Example 25] | 2 µM
9 | CN(c1ccccc1)S(=O)(=O)c1nc(-c2ccccc2)ns1 [Example 1] | 11 µM
10 | O=S(=O)(c1nc(-c2ccccc2)ns1)N1CCN(c2ccc(Cl)cc2)CC1 [Example 10] | 10 µM
11 | O=C1CCN(S(=O)(=O)c2nc(-c3ccccc3)ns2)CC1 [Example 13] | 2 µM
12 | O=C(c1ccc(F)cc1)C1CCN(S(=O)(=O)c2nc(-c3ccccc3)ns2)CC1 [Example 20] | 12 µM
13 | O=S(=O)(Nc1ccc(Cl)cc1)c1nc(-c2ccccc2)ns1 [Example 3] | 34 µM

Other lines, results leading:

Row | IC50 | SMILES
14 | 6 µM | O=C(O)CCNS(=O)(=O)c1nc(-c2ccccc2)ns1 [Example 21]
15 | 2 µM | COC(=O)[C@H](C)NS(=O)(=O)c1nc(-c2ccccc2)ns1 [Example 7]
16 | 10 µM | C[C@H](NS(=O)(=O)c1nc(-c2ccccc2)ns1)C(=O)O [Example 16, (S)-2-(3-Phenyl-(1,2,4)-thiadiazole-5-sulfonylamino)propionic acid]
17 | 10 µM | C[C@H](NS(=O)(=O)c1nc(-c2ccccc2)ns1)C(=O)OCc1ccccc1 [Example 17]
18 | 6 µM | O=S(=O)(NC1CCCCC1)c1nc(-c2ccccc2)ns1 [Example 5]
19 | 6 µM | CC(C)OC(=O)[C@H](C)NS(=O)(=O)c1nc(-c2ccccc2)ns1 [Example 23]
20 | 20 µM | O=C(O)[C@H](Cc1ccccc1)NS(=O)(=O)c1nc(-c2ccccc2)ns1 [Example 22]
21 | 40 µM | O=C(O)CNS(=O)(=O)c1nc(-c2ccccc2)ns1 [Example 19]
22 | 2 µM | O=C(O)C1CCC(CNS(=O)(=O)c2nc(-c3ccccc3)ns2)CC1 (centres unmarked) [Example 9]
23 | 8 µM | O=C(O)[C@@H]1CCCN1S(=O)(=O)c1nc(-c2ccccc2)ns1 [Example 18]
